The source of these data is patent US11919901B2 (Syndax Pharmaceuticals, Inc., priority 2021, dated 2024).

As usually defined, the Ki is the dissociation constant of the complex between target and ligand, obtained from inhibition or displacement. What is called EC50 is the midpoint of the concentration-response curve. A higher EC50 goes with lower potency in that assay. One may read the IC50 as the concentration needed to halve the response being measured. High values mean a need for much substance, low ones inhibition by little substance.

In one series the target is Menin-MLL (Homo sapiens (Human), UniProt O00255). Kind of series: Determination of binding constants (Ki) to Menin-MLL (HTRF). The note with it: HTRF, 0.25 nM H-FL-Menin, 3.2 nM FITC-MLL-4-43, 24 hr incubation; for Ki: read-out: Menin-MLL Ki HTRF Assay: Ki.
In another series the target is hERG (Homo sapiens (Human), UniProt Q12809). Kind of series: Patch clamp assay (hERG tail currents, whole-cell). It counts as cell-based. The note with it: hERG transfected HEK 293 cells; for hERG % Remaining 30 μM: 30 μM compound; for hERG % Remaining 10 μM: 10 μM compound.
Chain of hERG (Q12809 whole entry): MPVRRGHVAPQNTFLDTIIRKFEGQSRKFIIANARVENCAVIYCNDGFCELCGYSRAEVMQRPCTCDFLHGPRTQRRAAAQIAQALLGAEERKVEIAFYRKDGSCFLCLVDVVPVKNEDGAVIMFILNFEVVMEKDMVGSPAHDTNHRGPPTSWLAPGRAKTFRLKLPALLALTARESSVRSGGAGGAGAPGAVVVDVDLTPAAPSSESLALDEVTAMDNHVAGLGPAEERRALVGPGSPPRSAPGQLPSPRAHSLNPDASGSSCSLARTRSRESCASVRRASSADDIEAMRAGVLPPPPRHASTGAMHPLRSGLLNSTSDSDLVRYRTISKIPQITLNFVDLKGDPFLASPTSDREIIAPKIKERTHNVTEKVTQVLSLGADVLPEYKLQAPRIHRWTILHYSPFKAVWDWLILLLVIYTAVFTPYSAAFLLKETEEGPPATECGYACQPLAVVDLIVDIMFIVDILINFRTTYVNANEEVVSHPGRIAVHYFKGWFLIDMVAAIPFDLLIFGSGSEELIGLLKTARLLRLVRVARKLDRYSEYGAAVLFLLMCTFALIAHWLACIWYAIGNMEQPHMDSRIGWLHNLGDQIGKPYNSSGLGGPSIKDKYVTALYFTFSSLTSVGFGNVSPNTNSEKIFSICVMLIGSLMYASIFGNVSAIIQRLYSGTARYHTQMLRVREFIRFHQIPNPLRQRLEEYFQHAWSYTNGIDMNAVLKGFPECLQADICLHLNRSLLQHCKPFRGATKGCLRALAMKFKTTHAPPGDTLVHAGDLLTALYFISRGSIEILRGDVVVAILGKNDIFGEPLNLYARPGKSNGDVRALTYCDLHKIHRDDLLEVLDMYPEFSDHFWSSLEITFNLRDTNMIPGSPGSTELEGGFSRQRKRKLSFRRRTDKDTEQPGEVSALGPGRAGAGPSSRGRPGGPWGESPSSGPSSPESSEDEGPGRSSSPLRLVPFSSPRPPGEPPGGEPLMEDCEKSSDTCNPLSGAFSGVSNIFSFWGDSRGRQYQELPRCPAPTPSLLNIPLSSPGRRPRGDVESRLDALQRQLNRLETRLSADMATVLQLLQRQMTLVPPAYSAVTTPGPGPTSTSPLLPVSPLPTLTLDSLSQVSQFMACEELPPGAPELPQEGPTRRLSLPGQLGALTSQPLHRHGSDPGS

Chain of Menin-MLL (O00255 whole entry): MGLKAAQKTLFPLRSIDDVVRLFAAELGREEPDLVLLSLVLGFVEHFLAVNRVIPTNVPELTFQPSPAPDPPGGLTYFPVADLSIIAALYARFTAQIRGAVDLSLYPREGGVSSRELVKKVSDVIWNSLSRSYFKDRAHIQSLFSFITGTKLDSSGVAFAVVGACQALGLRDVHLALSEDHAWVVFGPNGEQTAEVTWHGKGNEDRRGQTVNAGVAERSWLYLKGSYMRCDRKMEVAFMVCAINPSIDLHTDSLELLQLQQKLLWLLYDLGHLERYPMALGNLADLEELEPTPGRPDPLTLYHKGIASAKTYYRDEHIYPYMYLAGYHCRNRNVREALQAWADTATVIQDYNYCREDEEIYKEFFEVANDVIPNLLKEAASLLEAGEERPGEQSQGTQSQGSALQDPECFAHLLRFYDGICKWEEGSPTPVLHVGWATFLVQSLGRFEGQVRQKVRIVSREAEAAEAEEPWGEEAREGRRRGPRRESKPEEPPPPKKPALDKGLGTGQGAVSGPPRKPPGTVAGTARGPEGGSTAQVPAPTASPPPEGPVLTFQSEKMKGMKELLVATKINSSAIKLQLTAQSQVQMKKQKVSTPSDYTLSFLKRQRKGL
Experimental for hERG: The 35 mm culture dishes upon which cells were seeded at a density allowing single cells to be recorded were placed on the dish holder of the microscope and continuously perfused (at approximately 1 mL/min) with the bath solution described in section 4.6. All solutions applied to cells including the pipette solution were maintained at room temperature (19° C. to 30° C.). After formation of a Gigaohm seal between the patch electrodes and individual hERG stably transfected HEK 293 cells (pipette resistance range: 2.0 MΩ2 to 7.0 MΩ; seal resistance range: >1GΩ) the cell membrane across the pipette tip was ruptured to assure electrical access to the cell interior (whole-cell patch-configuration). In case the quality of the seal was poor, the process of seal formation was repeated with a different cell and a new pipette. As soon as a stable seal could be established, hERG outward tail currents were measured upon depolarization of the cell membrane to +20 mV for 2s (activation of channels) from a holding potential of −80 mV and upon subsequent repolarization to −40 mV for 3 s. This voltage protocol (as shown below) was run at least 10 times at intervals of 10 s. If current density was judged to be too low for measurement, another cell was recorded.
During wash-in of the test item the voltage protocol indicated above was run continuously again at 10 s intervals until the steady-state level of block was reached.
The IC50 was determined by fitting the dose response curve with a 2-parameter logistic function (amax=100%).

On to `Cc1nn(C)cc1S(=O)(=O)N[C@@H]1CC[C@@H](CN2CCC3(CC2)CN(c2ncncc2Oc2ccc(F)cc2C(=O)N(CC(F)F)C(C)C)C3)OC1` [Compound 105, N-(2,2-Difluoroethyl)-2-((4-(7-(((2S,5R)-5-((1,3-dimethyl-1H-pyrazole)-4-sulfonamido)tetrahydro-2H-pyran-2-yl)methyl)-2,7-diazaspiro[3.5]nonan-2-yl)pyrimidin-5-yl)oxy)-5-fluoro-N-isopropylbenzamide], for which the Ki at Menin-MLL was < 1 nM. For the same compound, the “hERG % Remaining 30 μM” value at hERG was “+++ (“+++” means ≥66%)”.

Turning to `CC(C)N(C(=O)c1cc(F)ccc1Oc1cncnc1N1CC2(CCN(C[C@@H]3CC[C@@H](NS(=O)(=O)N4CCOCC4)CO3)CC2)C1)C(C)C` [Compound 78, 5-Fluoro-N,N-diisopropyl-2-((4-(7-(((2S,5R)-5-(morpholine-4-sulfonamido)tetrahydro-2H-pyran-2-yl)methyl)-2,7-diazaspiro[3.5]nonan-2-yl)pyrimidin-5-yl)oxy)benzamide], on Menin-MLL, the EC50 was < 50 nM and the Ki was < 1 nM. Further, at hERG, the “hERG % Remaining 10 μM” value is “+++ (“+++” means ≥66%)” and the “hERG % Remaining 30 μM” value was “+++ (“+++” means ≥66%)”.

Consider `CC(C)N(C(=O)c1cc(F)ccc1Oc1cncnc1N1CC2(CCN(C[C@@H]3CC[C@@H](NS(=O)(=O)N(C)C)CO3)CC2)C1)[C@H]1CCOC1` [Compound 177, 2-((4-(7-(((2S,5R)-5-((N,N-Dimethylsulfamoyl)amino)tetrahydro-2H-pyran-2-yl)methyl)-2,7-diazaspiro[3.5]nonan-2-yl)pyrimidin-5-yl)oxy)-5-fluoro-N-isopropyl-N-((S)-tetrahydrofuran-3-yl)benzamide], for which the Ki at Menin-MLL is < 1 nM. Further, at hERG, the “hERG % Remaining 10 μM” value is recorded as “+++ (“+++” means ≥66%)” and the “hERG % Remaining 30 μM” value is reported as “+++ (“+++” means ≥66%)”.

With `Cc1nc(S(=O)(=O)N[C@@H]2CC[C@@H](CN3CCC4(CC3)CN(c3ncncc3Oc3ccc(F)cc3C(=O)N(C(C)C)C(C)C)C4)OC2)cs1` [Compound 81, 5-Fluoro-N,N-diisopropyl-2-((4-(7-(((2S,5R)-5-((2-methylthiazole)-4-sulfonamido)tetrahydro-2H-pyran-2-yl)methyl)-2,7-diazaspiro[3.5]nonan-2-yl)pyrimidin-5-yl)oxy)benzamide], the Ki on Menin-MLL was < 1 nM. On hERG, the “hERG % Remaining 10 μM” value was “++ (“++” means ≥33% and <66%)”; the “hERG % Remaining 30 μM” value is “++ (“++” means ≥33% and <66%)”.

`CCN(C(=O)c1cc(F)ccc1Oc1cncnc1N1CC2(CCN(C[C@@H]3CC[C@@H](NS(=O)(=O)c4ccccc4)CO3)CC2)C1)C(C)C` [Compound 45, N-ethyl-5-fluoro-N-isopropyl-2-((4-(7-(((2S,5R)-5-(phenylsulfonamido)tetrahydro-2H-pyran-2-yl)methyl)-2,7-diazaspiro[3.5]nonan-2-yl)pyrimidin-5-yl)oxy)benzamide]: on Menin-MLL, the EC50 was < 50 nM and the Ki is < 1 nM. Besides, at hERG, the “hERG % Remaining 10 μM” value is “++ (“++” means ≥33% and <66%)”; the “hERG % Remaining 30 μM” value is given as “+ (“+” means <33%)”.

Regarding `CCS(=O)(=O)N[C@@H]1CC[C@@H](CN2CCC3(CC2)CN(c2ncncc2Oc2ccc(F)cc2C(=O)N(CC(F)F)C(C)C)C3)OC1` [Compound 34, N-(2,2-difluoroethyl)-2-((4-(7-(((2S,5R)-5-(ethylsulfonamido)tetrahydro-2H-pyran-2-yl)methyl)-2,7-diazaspiro[3.5]nonan-2-yl)pyrimidin-5-yl)oxy)-5-fluoro-N-isopropylbenzamide], at Menin-MLL, the EC50 is < 50 nM and the inhibition constant Ki is < 1 nM. Moreover, on hERG (1 μM compound), the “hERG % Remaining 1 μM” value is listed as “+++ (“+++” means ≥66%)”. Also, the “hERG % Remaining 3 μM” value at hERG (3 μM compound) is given as “+++ (“+++” means ≥66%)”. Further, on hERG, the “hERG % Remaining 10 μM” value is recorded as “+++ (“+++” means ≥66%)”; the “hERG % Remaining 30 μM” value was “++ (“++” means ≥33% and <66%)”; the IC50 was in the range of 25000 to 50000 nM. Besides, the “hERG % Remaining 100 μM” value at hERG (100 μM compound) was “+ (“+” means <33%)”.

Consider `CCNS(=O)(=O)N[C@@H]1CC[C@@H](CN2CCC3(CC2)CN(c2ncncc2Oc2ccc(F)cc2C(=O)N(C(C)C)C2CC(F)(F)C2)C3)OC1` [Compound 155, N-(3,3-Difluorocyclobutyl)-2-((4-(7-(((2S,5R)-5-((N-ethylsulfamoyl)amino)tetrahydro-2H-pyran-2-yl)methyl)-2,7-diazaspiro[3.5]nonan-2-yl)pyrimidin-5-yl)oxy)-5-fluoro-N-isopropylbenzamide], for which the Ki on Menin-MLL was < 1 nM. Also, on hERG, the “hERG % Remaining 10 μM” value is “+++ (“+++” means ≥66%)”; the “hERG % Remaining 30 μM” value is “++ (“++” means ≥33% and <66%)”.

Turning to `CCN(C(=O)c1cc(F)ccc1Oc1cncnc1N1CC2(CCN(C[C@@H]3CC[C@@H](NS(=O)(=O)N4CCC[C@H]4C)CO3)CC2)C1)C(C)C` [Compound 200, N-Ethyl-5-fluoro-N-isopropyl-2-((4-(7-(((2S,5R)-5-(((R)-2-methylpyrrolidine)-1-sulfonamido)tetrahydro-2H-pyran-2-yl)methyl)-2,7-diazaspiro[3.5]nonan-2-yl)pyrimidin-5-yl)oxy)benzamide], the Ki on Menin-MLL was < 1 nM. On hERG, the “hERG % Remaining 10 μM” value was “++ (“++” means ≥33% and <66%)”; the “hERG % Remaining 30 μM” value is on record as “+ (“+” means <33%)”.

Regarding `CC(C)N(C(=O)c1cc(F)ccc1Oc1cncnc1N1CC2(CCN(C[C@@H]3CC[C@@H](NS(=O)(=O)c4cnn(C5CC5)c4)CO3)CC2)C1)C(C)C` [Compound 83, 2-((4-(7-(((2S,5R)-5-((1-Cyclopropyl-1H-pyrazole)-4-sulfonamido)tetrahydro-2H-pyran-2-yl)methyl)-2,7-diazaspiro[3.5]nonan-2-yl)pyrimidin-5-yl)oxy)-5-fluoro-N,N-diisopropylbenzamide], the Ki at Menin-MLL is < 1 nM. On hERG, the “hERG % Remaining 10 μM” value was “+++ (“+++” means ≥66%)”; the “hERG % Remaining 30 μM” value was “++ (“++” means ≥33% and <66%)”.

Turning to `CCN(C(=O)c1cc(F)ccc1Oc1cncnc1N1CC2(CCN(C[C@@H]3CC[C@@H](NS(=O)(=O)c4ccccn4)CO3)CC2)C1)C(C)C` [Compound 58, N-ethyl-5-fluoro-N-isopropyl-2-((4-(7-(((2S,5R)-5-(pyridine-2-sulfonamido)tetrahydro-2H-pyran-2-yl)methyl)-2,7-diazaspiro[3.5]nonan-2-yl)pyrimidin-5-yl)oxy)benzamide], at Menin-MLL, the EC50 was < 50 nM and the Ki is < 1 nM. On hERG, the “hERG % Remaining 10 μM” value is “+++ (“+++” means ≥66%)”; the “hERG % Remaining 30 μM” value was “++ (“++” means ≥33% and <66%)”.

As to `CC(C)N(C(=O)c1cc(F)ccc1Oc1cncnc1N1CC2(CCN(C[C@@H]3CC[C@@H](NS(=O)(=O)c4ccn(C)n4)CO3)CC2)C1)C(C)C` [Compound 87, 5-Fluoro-N,N-diisopropyl-2-((4-(7-(((2S,5R)-5-((1-methyl-1H-pyrazole)-3-sulfonamido)tetrahydro-2H-pyran-2-yl)methyl)-2,7-diazaspiro[3.5]nonan-2-yl)pyrimidin-5-yl)oxy)benzamide], the Ki on Menin-MLL was < 1 nM. For the same compound, the “hERG % Remaining 30 μM” value on hERG was “+++ (“+++” means ≥66%)”.

Regarding `CC(C)N(CC#N)C(=O)c1cc(F)ccc1Oc1cncnc1N1CC2(CCN(C[C@@H]3CC[C@@H](NS(=O)(=O)N4CCC4)CO3)CC2)C1` [Compound 182, 2-((4-(7-(((2S,5R)-5-(Azetidine-1-sulfonamido)tetrahydro-2H-pyran-2-yl)methyl)-2,7-diazaspiro[3.5]nonan-2-yl)pyrimidin-5-yl)oxy)-N-(cyanomethyl)-5-fluoro-N-isopropylbenzamide], on Menin-MLL, the Ki is < 1 nM. Also, the “hERG % Remaining 30 μM” value at hERG is reported as “+++ (“+++” means ≥66%)”.

As to `CO[C@H]1CCN(S(=O)(=O)N[C@@H]2CC[C@@H](CN3CCC4(CC3)CN(c3ncncc3Oc3ccc(F)cc3C(=O)N(C(C)C)C(C)C)C4)OC2)C1` [Compound 210, 5-Fluoro-N,N-diisopropyl-2-((4-(7-(((2S,5R)-5-(((S)-3-methoxypyrrolidine)-1-sulfonamido)tetrahydro-2H-pyran-2-yl)methyl)-2,7-diazaspiro[3.5]nonan-2-yl)pyrimidin-5-yl)oxy)benzamide], the Ki on Menin-MLL is < 1 nM. The “hERG % Remaining 30 μM” value on hERG is recorded as “+++ (“+++” means ≥66%)”.

On to `CC(C)N(CC(F)F)C(=O)c1cc(F)ccc1Oc1cncnc1N1CC2(CCN(C[C@@H]3CC[C@@H](NS(=O)(=O)c4cnn(C)c4)CO3)CC2)C1` [Compound 100, N-(2,2-Difluoroethyl)-5-fluoro-N-isopropyl-2-((4-(7-(((2S,5R)-5-((1-methyl-1H-pyrazole)-4-sulfonamido)tetrahydro-2H-pyran-2-yl)methyl)-2,7-diazaspiro[3.5]nonan-2-yl)pyrimidin-5-yl)oxy)benzamide], for which the Ki at Menin-MLL is < 1 nM. On hERG, the “hERG % Remaining 10 μM” value was “+++ (“+++” means ≥66%)”, the “hERG % Remaining 30 μM” value is recorded as “+++ (“+++” means ≥66%)” and the IC50 was ≥ 50000 nM.

`CC(C)N(C(=O)c1cc(F)ccc1Oc1cncnc1N1CC2(CCN(C[C@@H]3CC[C@@H](NS(=O)(=O)C4CC4)CO3)CC2)C1)C1CC(F)(F)C1` [Compound 111, 2-((4-(7-(((2S,5R)-5-(Cyclopropanesulfonamido)tetrahydro-2H-pyran-2-yl)methyl)-2,7-diazaspiro[3.5]nonan-2-yl)pyrimidin-5-yl)oxy)-N-(3,3-difluorocyclobutyl)-5-fluoro-N-isopropylbenzamide]: at Menin-MLL, the EC50 is < 50 nM and the Ki is < 1 nM. In addition, on hERG, the “hERG % Remaining 10 μM” value is “++ (“++” means ≥33% and <66%)”; the “hERG % Remaining 30 μM” value is “+ (“+” means <33%)”.
